The structures appear in SMILES notation.

The values below come from patent publication US4874891A, “Open "D" ring hormone analogs” (Washington University, priority 1986, dated 1989).

For this experiment, the target named is T1, 17β-HSD (Homo sapiens, UniProt P14061).
T1 sequence (P14061 1-328): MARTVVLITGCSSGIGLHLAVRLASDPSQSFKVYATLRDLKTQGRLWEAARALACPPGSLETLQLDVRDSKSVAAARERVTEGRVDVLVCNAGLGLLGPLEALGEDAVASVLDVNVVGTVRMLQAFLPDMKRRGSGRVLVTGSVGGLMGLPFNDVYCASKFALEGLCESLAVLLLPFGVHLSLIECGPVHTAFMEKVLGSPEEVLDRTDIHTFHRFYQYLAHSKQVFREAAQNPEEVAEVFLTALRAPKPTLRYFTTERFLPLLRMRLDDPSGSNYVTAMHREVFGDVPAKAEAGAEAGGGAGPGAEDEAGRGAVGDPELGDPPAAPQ
The experiment can be described thus: Time-dependent inactivation of 17β-HSD (NADH production at 340 nm with estradiol and NAD+). Type of experiment: biochemical. How it is done:
The compounds of the invention prepared as described above were tested for their ability to affect the reaction catalyzed by 17β-HSD, as follows.
Approximately 5 μl of a 2-20 mM solution of the test compound in absolute alcohol was added to the incubation mixture, which contained:
200 μM NAD^+ (100 μl of 2 mM stock);
795 μl 100 mM sodium carbonate buffer (pH 9.2, containing 20% glycerol) or 795 μl phosphate buffer (pH 7.4, 20% glycerol);
90 μg of enzyme (supplied as 100 μl of 0.9 μg/μl stock).
Aliquots were removed at intervals and added to 950 μl of assay cocktail, which contained:
100 mM sodium carbonate buffer;
60 μM estradiol in propylene glycol stock;
0.8% human serum albumin.
The activity remaining in the incubation mixture was assessed by NADH production in the assay cocktail monitored by adsorption at 340 nm every 15 sec for 2 min with an automated spectrophotometer.
All aqueous stock solutions were prepared in 100 mM sodium carbonate buffer, 20% glycerol, to maintain enzyme stability. Where additional components were added, such as glutathione, volumes were adjusted accordingly. To assess loss of enzyme activity independent of the test compound, 5 μl ethanol was added in place of steroid stock solution to the assay cocktail.
When aliquots were withdrawn less than 3 min apart, the aliquot was quenched in 900 μl assay buffer without NAD^+ and supplemented with 5 mM glutathione: after all aliquots were withdrawn, samples were assayed by adding NAD^+ (50 μl of a 4 mM stock) and monitored as above.
Compounds of the invention were evaluated in terms of Km, Vmax, and Rp.

With `C#CC(O)C1(C)CCC2c3ccc(O)cc3CCC2C1` (stereo not drawn) [--CH(OH)C.ident.CH, [2S-[2α(S*),4aα,10aβ]]-α-Ethynyl-1,2,3,4,4a,9,10,10a-octahydro-7-hydroxy-2-methyl-2-phenanthrenemethanol], the “effect of glutathione on inactivation of the enzyme” value (5 mM glutathione) is 5 mM glutathione protects the enzyme from inactivation.

On to `C#CC(=O)[C@@]1(C)CC[C@@H]2c3ccc(O)cc3CC[C@H]2C1` [--COC.ident.CH, [2S-(2α,4aα,10aβ)]-1-(1,2,3,4,4a,9,10,10a-Octahydro-7-hydroxy-2-methyl-2-phenanthrenyl)-2-propyn-1-one], for which, for the setting “presence of NAD+”, the “substrate for the enzyme” value was “not a substrate for the enzyme in the presence of NAD^+”. In addition, the “effect of NADH on inactivation of the enzyme” value (presence of NADH) is “inactivation of the enzyme is inhibited by the presence of NADH”.
